In patent EP0159396B1, “Carboxyalkyl peptide derivatives” (G.D. Searle & Co., priority 1984, dated 1985):

Test system: rat model of inflammatory arthritis
Experiment: rat model of inflammatory arthritis induced by Type II collagen (Trentham et al.)
Format: in vivo
Details: arthritic rats' paws, test compound 100 mg/kg i.p. twice daily for 21 days, prednisolone 0.625 mg/kg b.i.d.
Description: The therapeutic effectiveness is assessed in the rat model of inflammatory arthritis described by Trentham et al. (1977). In this model, the arthritis, induced by an intradermal injection of Type II collagen, generally develops in both hind paws and the progression and severity of the lesion are monitored by physical measurements of the malleolar width and ankle extensibility.
The compound of example II in the present specification was administered by intraperitoneal injections at 100 mg/kg twice daily for 21 days commencing seven days after the injection of the disease.
Drugs (Example 1 or prednisolone) and vehicle were administered to groups of 10 rats each. Physical measurements on the rat paws were made weekly for four weeks and consisted of (a) the distance between the medial and lateral malleolus (malleolar width) and (b) the ankle extension which was measured by applying a standard force to the rat paw and measuring the angle formed between the flexor surface of the foot and tibia. Evidence of a therapeutic effect was denoted by a significant reduction in malleolar width and […] a significant increase in ankle extension. Both measurements were carried out on apparatus designed for the purpose. Area-under-the-curve data from these time course experiments was examined by non-parametric statistical analysis. The prednisolone standard was given at a dose of 0.625 mg/kg b.i.d. Prednisolone was chosen as a standard since steroids are known to be effective both clinically in Rheumatoid Arthritis and in animal models of arthritis.

[1] = experiment number 1, area-under-the-curve of weekly measurements over four weeks

Structure (SMILES)	MALLEOLAR WIDTH, PERCENTAGE CHANGE FROM CONTROL [1]	ANGLE EXTENSION, PERCENTAGE CHANGE FROM CONTROL (experiment number 1)	ANGLE EXTENSION, PERCENTAGE CHANGE FROM CONTROL (experiment number 2)	MALLEOLAR WIDTH, PERCENTAGE CHANGE FROM CONTROL (experiment number 2)	ANGLE EXTENSION, PERCENTAGE CHANGE FROM CONTROL (experiment number 3)	MALLEOLAR WIDTH, PERCENTAGE CHANGE FROM CONTROL (experiment number 3)	ANGLE EXTENSION, PERCENTAGE CHANGE FROM CONTROL, MEAN (mean of experiments 1-3)	MALLEOLAR WIDTH, PERCENTAGE CHANGE FROM CONTROL, MEAN (mean of experiments 1-3)	MALLEOLAR WIDTH, […] FROM CONTROL [1]	ANGLE EXTENSION, […] FROM CONTROL (experiment number 1)	ANGLE EXTENSION, […] FROM CONTROL (experiment number 2)	MALLEOLAR WIDTH, […] FROM CONTROL (experiment number 2)	ANGLE EXTENSION, […] FROM CONTROL (experiment number 3)	MALLEOLAR WIDTH, […] FROM CONTROL (experiment number 3)	ANGLE EXTENSION, […] FROM CONTROL, MEAN (mean of experiments 1-3)	MALLEOLAR WIDTH, […] FROM CONTROL, MEAN (mean of experiments 1-3)
CNC(=O)[C@H](Cc1ccc(OC)cc1)NC(=O)[C@H](CC(C)C)N[C@H](CCNC(=O)OCc1ccccc1)C(=O)O [Example 1, N-[3-N-(Benzyloxycarbonyl)amino-I-(R)-carboxypropyl]-L-leucyl-O-methyl-L-tyrosine N-Methylamide]	65%	66%	39%	43%	39%	41%	48%	50%								
C[C@]12C=CC(=O)C=C1CC[C@@H]1[C@@H]2[C@@H](O)C[C@@]2(C)[C@H]1CC[C@]2(O)C(=O)CO [Prednisolone]									98%	100%	96%	96%	95%	97%	97%	97%
